Data reported in patent publication US8895752B2, “Alkylsulfonyl-substituted thiazolide compounds” (priority 2007, dated 2014).
Like-named read-outs stand apart in the source and are kept apart here.

How the values were obtained:
HCV replicon = assay: Primary HCV replicon cell assay; assay type: cell-based, Hepatitis C Virus
Procedure: (§1) Antiviral activity of test compounds was assessed in a 3-day assay using the stably-expressing HCV replicon cell line, AVA5 (sub-genomic CON1, genotype 1b) (Blight et al., 2000) maintained as sub-confluent cultures on 96-well plates as previously described (Okuse et al., 2005). Antiviral activity was determined by blot hybridization analysis of intracellular HCV RNA (normalized to the level of cellular B-actin RNA in each culture sample) and cytotoxicity was assessed by neutral red dye uptake after 3 days of treatment. Additional studies were performed using Huh7 cells containing another HCV replicon, H/FL-Neo, a genotype 1a full length construct (Blight et al., 2003). For studies involving human serum, standard culture medium (which contains 10% fetal bovine serum) and assay conditions were maintained.
(§2) EC50, EC90 and CC50 values (±standard deviations [S.D.]) were calculated by linear regression analysis using data combined from all treated cultures (Korba and Gerin, 1992; Okuse et al., 2005). […] Selectivity index (S.I.) was calculated as CC50/EC90 for HBV assays and CC50/EC50 for HCV assays. EC90 values were used for calculation of the S.I. in HBV assays since at least a […] depression of HBV DNA levels is typically required to achieve statistical significance in this assay system (Korba and Gerin, 1992). For combination treatments, EC50, EC90, CC50 and S.I. are presented for the first compound listed. The molar ratio of the compounds in each combination is also indicated.

[1] = Primary HCV replicon cell assay, cytotoxicity; conditions: human, HCV replicon cells (primary assay), CC50, primary assay
Procedure: as §1, §2

HBV = HBV antiviral assay in confluent 2.2.15 cell cultures (HBV DNA, quantitative blot hybridization); assay type: cell-based, Hepatitis B Virus
Procedure: EC50, EC90 and CC50 values (±standard deviations [S.D.]) were calculated by linear regression analysis using data combined from all treated cultures (Korba and Gerin, 1992; Okuse et al., 2005). […] Selectivity index (S.I.) was calculated as CC50/EC90 for HBV assays and CC50/EC50 for HCV assays. EC90 values were used for calculation of the S.I. in HBV assays since at least a 3-fold depression of HBV DNA levels is typically required to achieve statistical significance in this assay system (Korba and Gerin, 1992).

2.2.15 cells = assay: Cytotoxicity by neutral red dye uptake in 2.2.15 cells; conditions: confluent 2.2.15 cultures, nine daily doses, neutral red uptake
Procedure: (§3) HBV antiviral assays were conducted as previous described (Korba and Gerin, 1992).
as §2

[2] = system: HCV replicon, sub-genomic CON1, genotype 1b; assay: 3-day HCV replicon assay in AVA5 cells (intracellular HCV RNA, blot hybridization); assay type: cell-based, Hepatitis C Virus; conditions: for EC50 / EC90: 3 days, first compound listed for combinations
Procedure: as §1, §2

AVA5 cells = assay: Cytotoxicity by neutral red dye uptake in AVA5 cells; assay type: cell-based; conditions: Genotype 1b replicon, 3 days
[3] = Cytotoxicity by neutral red dye uptake in 2.2.15 cells; conditions: human
Procedure: as §3, §2

[4] = Cytotoxicity by neutral red dye uptake in AVA5 cells; assay type: cell-based; conditions: human, AVA5 cells (HCV replicon, sub-genomic CON1), Genotype 1b replicon
HCV replicon genotype 1B = assay: Secondary HCV replicon cell assay, genotype 1B; assay type: cell-based, Hepatitis C Virus
From the text: (§4) Table 10 presents data from the secondary HCV replicon cell assays using genotypes 1B and 1A.

[5] = system: HCV replicon cells, genotype 1B; assay: Secondary HCV replicon cell assay, genotype 1B, cytotoxicity; assay type: cell-based
From the text: as §4

HCV replicon genotype 1A = assay: Secondary HCV replicon cell assay, genotype 1A; assay type: cell-based, Hepatitis C Virus
From the text: as §4

[6] = system: HCV replicon cells, genotype 1A; assay: Secondary HCV replicon cell assay, genotype 1A, cytotoxicity; assay type: cell-based
From the text: as §4

Wild-type HBV = assay: 5-day transient transfection assay in Huh7 cells, intracellular HBV RI by Southern blot; assay type: cell-based, Hepatitis B Virus; conditions: Wild-type, Huh7 transient transfection
HBV Mutant L180M/M204V = assay: as above; assay type: cell-based, Hepatitis B Virus; conditions: L180M/M204V
Procedure: (§5) Activity against LMV-resistant (Allen et al., 1998) and ADV-resistant (Angus et al., 2003) HBV mutants was performed in a 5-day assay using a transient transfection method as previously described (Iyer et al., 2004). Antiviral activity was determined by quantitative Southern blot hybridization of intracellular HBV DNA replication intermediates (HBV RI).

HBV Mutant L180M = assay: as above; assay type: cell-based, Hepatitis B Virus; conditions: L180M
Procedure: as §5

HBV Mutant M204I = assay: as above; assay type: cell-based, Hepatitis B Virus; conditions: M204I
Procedure: as §5

HBV Mutant M204V = assay: as above; assay type: cell-based, Hepatitis B Virus; conditions: M204V
Procedure: as §5

HBV Mutant N236T = assay: as above; assay type: cell-based, Hepatitis B Virus; conditions: N236T
Procedure: as §5

[7] = 2.2.15 cells, nine daily doses, read-out: Extracellular virion DNA EC50
[8] = 2.2.15 cells, nine daily doses, read-out: Extracellular virion DNA EC90
[9] = Hepatitis C virus, Ava5, 72 h, Genotype 1b replicon

CC(=O)Oc1ccccc1C(=O)Nc1ncc(S(C)(=O)=O)s1 [Compound 7, 2-(5-(methylsulfonyl)thiazol-2-ylcarbamoyl)phenyl acetate]
EC50 (HCV replicon; Hepatitis C virus): > 10 µM
EC90 (HCV replicon; Hepatitis C virus): > 10 µM
CC50 at 3 days [1]: 20 µM

Cc1cccc(C(=O)Nc2ncc(Cl)s2)c1O [RM4851]
EC50 (HBV; [7]): > 10 µM
EC90 (HBV; [8]): > 10 µM
EC50 (HBV; 2.2.15 cells, nine daily doses, read-out: Intracellular HBV RI EC50): > 10 µM
EC90 (HBV; 2.2.15 cells, nine daily doses, read-out: Intracellular HBV RI EC90): > 10 µM
CC50 (2.2.15 cells): > 100 µM
EC50 ([2]; Genotype 1b replicon): > 20 µM
EC90 ([2]; Genotype 1b replicon): > 20 µM
CC50 (AVA5 cells): 5.6 ± 0.3 µM

CS(=O)(=O)c1cnc(NC(=O)c2ccccc2O)s1 [Compound 6, 2-hydroxy-N-(5-(methylsulfonyl)thiazol-2-yl)benzamide]
EC50 (HBV; Hepatitis B virus, read-out: Intracellular HBV RI EC50): > 10 µM
EC50 (HBV; Hepatitis B virus, 2.2.15 cells, nine daily doses, read-out: Extracellular virion DNA EC50): > 10 µM
EC90 (HBV; Hepatitis B virus, 2.2.15 cells, nine daily doses, read-out: Extracellular virion DNA EC90): > 10 µM
EC90 (HBV; Hepatitis B virus, 2.2.15 cells, nine daily doses, read-out: Intracellular HBV RI EC90): > 10 µM
CC50 at 9 days [3]: > 100 µM
Selectivity Index ([2]; Genotype 1b replicon, CC50/EC50): 74
EC50 [2, 9]: 0.04 ± 0.005 µM
EC90 [2, 9]: 0.59 ± 0.07 µM
activity against HCV ([2]; among the other thiazolides): exhibited activity
CC50 at 3 days [4]: 2.8 ± 0.3 µM
EC50 (HCV replicon; Hepatitis C virus): 1.5 µM
EC90 (HCV replicon; Hepatitis C virus): 5.2 µM
CC50 at 3 days [1]: 43 µM
EC50 (HCV replicon genotype 1B): 0.89 µM
EC90 (HCV replicon genotype 1B; Hepatitis C virus): 8.8 µM
CC50 [5]: > 10 µM
EC50 (HCV replicon genotype 1A): 0.8 µM
EC90 (HCV replicon genotype 1A): 3.4 µM
CC50 [6]: > 10 µM

CCCCSc1cnc(NC(=O)c2ccccc2O)s1
melting point: 180 to 181 °C

CC(C)(C)C(=O)OCOP(=O)(COCCn1cnc2c(N)ncnc21)OCOC(=O)C(C)(C)C [ADV, adefovir dipovoxil]
EC50 (HBV; [7]): 1 ± 0.2 µM
EC90 (HBV; [8]): 3 ± 0.3 µM
CC50 (2.2.15 cells): > 300 µM
EC90 (Wild-type HBV): 7 ± 0.8 µM
EC50 (Wild-type HBV; read-out: EC50): 2 ± 0.2 µM
EC50 (HBV Mutant L180M/M204V; read-out: EC50): 2.5 ± 0.3 µM
EC90 (HBV Mutant L180M/M204V; read-out: EC90): 7.6 ± 0.8 µM
EC50 (HBV Mutant L180M; read-out: EC50): 2.6 ± 0.3 µM
EC90 (HBV Mutant L180M; read-out: EC90): 7.3 ± 0.8 µM
EC50 (HBV Mutant M204I; read-out: EC50): 2.5 ± 0.3 µM
EC90 (HBV Mutant M204I; read-out: EC90): 8.5 ± 1 µM
EC50 (HBV Mutant M204V; read-out: EC50): 1.5 ± 0.2 µM
EC90 (HBV Mutant M204V; read-out: EC90): 7.2 ± 0.8 µM
EC50 (HBV Mutant N236T; read-out: EC50): 11 ± 1.3 µM
EC90 (HBV Mutant N236T; read-out: EC90): 32 ± 3.6 µM

CS(=O)(=O)c1csc(NC(=O)c2ccccc2O)n1 [Compound 60, 2-hydroxy-N-(4-(methylsulfonyl)thiazol-2-yl)benzamide]
EC90 (HCV replicon): 0.654 µM
EC90 (HCV replicon; Hepatitis C virus): 0.585 µM

CCCCSc1cnc(NC(=O)c2ccccc2OC(C)=O)s1
melting point: 100 to 101 °C

CCCCS(=O)(=O)c1cnc(NC(=O)c2ccccc2O)s1
melting point: 235 to 236 °C

CSc1cnc(NC(=O)c2cccc(OC(C)=O)c2)s1
melting point: 135.2 to 136.2 °C
